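The compound was tested at five concentrations on cells cultured in 96-well plates, with a 48-hour exposure period. Here, GI50 denotes the concentration required for 50% inhibition of growth.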 Active and inactive are the calls of the source. Cut-off read from the data, not from the text of the source: active = GI50 up to about 1.1 µM and inactive = higher.
What was measured:
Assay in all cases: NCI-60 cell line screen, 48 h
SN12C = test system: SN12C
MOLT-4 = test system: MOLT-4
OVCAR-5 = test system: OVCAR-5
SK-MEL-5 = test system: SK-MEL-5
RXF 393 = test system: RXF 393
HCT-15 = test system: HCT-15
COLO 205 = test system: COLO 205
UACC-257 = test system: UACC-257
HCT-116 = test system: HCT-116
A549 = test system: A549
SF-295 = test system: SF-295
UO-31 = test system: UO-31
NCI-H460 = test system: NCI-H460
HT-29 = test system: HT-29
SK-OV-3 = test system: SK-OV-3
OVCAR-3 = test system: OVCAR-3
T47D = test system: T47D
UACC-62 = test system: UACC-62
MDA-MB-435 = test system: MDA-MB-435
M14 = test system: M14
EKVX = test system: EKVX
PC-3 = test system: PC-3
SNB-19 = test system: SNB-19
ACHN = test system: ACHN
HCC 2998 = test system: HCC 2998
A498 = test system: A498
CCRF-CEM = test system: CCRF-CEM
CAKI-1 = test system: CAKI-1
Malme-3M = test system: Malme-3M
U-251 = test system: U-251
MDA-N = test system: MDA-N
SF-539 = test system: SF-539
SF-268 = test system: SF-268
HOP-62 = test system: HOP-62
SK-MEL-28 = test system: SK-MEL-28
MDA-MB-231 = test system: MDA-MB-231
HOP-92 = test system: HOP-92
SW-620 = test system: SW-620
BT-549 = test system: BT-549
OVCAR-4 = test system: OVCAR-4
OVCAR-8 = test system: OVCAR-8
K562 = test system: K562
Hs-578T = test system: Hs-578T
NCI/ADR-RES = test system: NCI/ADR-RES
786-0 = test system: 786-0
NCI-H226 = test system: NCI-H226
IGROV-1 = test system: IGROV-1
KM12 = test system: KM12
NCI-H23 = test system: NCI-H23
TK-10 = test system: TK-10
SNB-75 = test system: SNB-75
MCF7 = test system: MCF7
SR = test system: SR
NCI-H522 = test system: NCI-H522

O=S(=O)(CCC[C@H]1[C@@H](CCOCc2ccccc2)C2CCCN1O2)c1ccccc1 (some centres undefined)
GI50 (SN12C): > 100 µM (inactive)
GI50 (MOLT-4): 65.3 µM (inactive)
GI50 (OVCAR-5): > 100 µM (inactive)
GI50 (SK-MEL-5): 43.3 µM (inactive)
GI50 (RXF 393): > 100 µM (inactive)
GI50 (HCT-15): > 100 µM
GI50 (COLO 205): > 100 µM (inactive)
GI50 (UACC-257): > 100 µM (inactive)
GI50 (HCT-116): > 100 µM (inactive)
GI50 (A549): > 100 µM (inactive)
GI50 (SF-295): > 100 µM (inactive)
GI50 (UO-31): > 100 µM (inactive)
GI50 (NCI-H460): > 100 µM (inactive)
GI50 (HT-29): > 100 µM (inactive)
GI50 (SK-OV-3): > 100 µM (inactive)
GI50 (OVCAR-3): > 100 µM (inactive)
GI50 (T47D): 59.2 µM (inactive)
GI50 (UACC-62): > 100 µM (inactive)
GI50 (MDA-MB-435): > 100 µM (inactive)
GI50 (M14): > 100 µM (inactive)
GI50 (EKVX): 57.3 µM (inactive)
GI50 (PC-3): > 100 µM (inactive)
GI50 (SNB-19): > 100 µM (inactive)
GI50 (ACHN): > 100 µM (inactive)
GI50 (HCC 2998): > 100 µM (inactive)
GI50 (A498): > 100 µM (inactive)
GI50 (CCRF-CEM): > 100 µM (inactive)
GI50 (CAKI-1): > 100 µM (inactive)
GI50 (Malme-3M): > 100 µM (inactive)
GI50 (U-251): > 100 µM (inactive)
GI50 (MDA-N): > 100 µM (inactive)
GI50 (SF-539): > 100 µM (inactive)
GI50 (SF-268): > 100 µM (inactive)
GI50 (HOP-62): > 100 µM (inactive)
GI50 (SK-MEL-28): > 100 µM (inactive)
GI50 (MDA-MB-231): > 100 µM (inactive)
GI50 (HOP-92): > 100 µM (inactive)
GI50 (SW-620): > 100 µM (inactive)
GI50 (BT-549): 41 µM (inactive)
GI50 (OVCAR-4): > 100 µM (inactive)
GI50 (OVCAR-8): > 100 µM (inactive)
GI50 (K562): 63.2 µM (inactive)
GI50 (Hs-578T): > 100 µM (inactive)
GI50 (NCI/ADR-RES): > 100 µM (inactive)
GI50 (786-0): > 100 µM (inactive)
GI50 (NCI-H226): > 100 µM (inactive)
GI50 (IGROV-1): > 100 µM (inactive)
GI50 (KM12): > 100 µM (inactive)
GI50 (NCI-H23): > 100 µM (inactive)
GI50 (TK-10): > 100 µM (inactive)
GI50 (SNB-75): > 100 µM (inactive)
GI50 (MCF7): > 100 µM (inactive)
GI50 (SR): > 100 µM (inactive)
GI50 (NCI-H522): > 100 µM (inactive)
